A short description of experiment [1]: Single channel recordings of conductance in supported lipid bilayer. Conditions: 1 M KCl, transmembrane potential 75 mV, positive control. Type of experiment: biochemical.
On the set-up of experiment [2]: unit not given here. The settings on record: literature value (ref 30); cited from earlier work.

With gramicidin A, the “conductance of Gramicidin channels” value in experiment [1] came out at 0.058±0.008 nS. Further, the “reported conductance of gramicidin” value in experiment [2] is 0.0459±0.005.

Source of the values: patent publication US11439708B2, “Nanotube trans-membrane channels mimicking biological porins” (LAWRENCE LIVERMORE NATIONAL SECURITY, LLC, priority 2014, dated 2022).
